Active and inactive are the calls of the source. No cut-off for these calls is given here.

A word on the IC50: it is the concentration that inhibits the measured activity by half.

Assay [1] is described as follows: Inhibition of hyaluronidase (unknown origin) using hyaluronic acid as substrate preincubated for 20 mins followed by CaCl2 activation for 20 mins and subsequent substrate addition measured after 10 mins by colorimetric method. Further details: species or system Homo sapiens.
Assay [2] is filed under the species Homo sapiens. The assay can be described thus: Ratio of IC50 for CaCl2 activated hyaluronidase (unknown origin) to IC50 for hyaluronidase (unknown origin) using hyaluronic acid as substrate preincubated for 20 mins followed by CaCl2 activation.
Assay [3] in a line: Inhibition of CaCl2 activated hyaluronidase (unknown origin) using hyaluronic acid as substrate preincubated for 20 mins followed by substrate addition measured after 10 mins by colorimetric method. Further details: species or system Homo sapiens.
Assay [4] can be described thus: Inhibition of CaCl2 activated hyaluronidase (unknown origin) using hyaluronic acid as substrate preincubated for 20 mins followed by substrate addition measured after 10 mins in presence of Triton-X-100 by colorimetric method. Also on record: species or system Homo sapiens.
Assay [5] in a line: Inhibition of hyaluronidase (unknown origin) using hyaluronic acid as substrate preincubated for 20 mins followed by substrate addition measured after 40 mins by colorimetric method. Also on record: species or system Homo sapiens.
The species entered for assay [6] is Homo sapiens. Put plainly: Inhibition of CaCl2 activated hyaluronidase (unknown origin) up to 400 uM using hyaluronic acid as substrate preincubated for 20 mins followed by substrate addition measured after 10 mins in presence of up to 15% DMSO by colorimetric method.
Assay [7] is filed under the species Homo sapiens. The assay can be described thus: Inhibition of CaCl2 activated hyaluronidase (unknown origin) up to 3000 uM using hyaluronic acid as substrate preincubated for 20 mins followed by substrate addition measured after 10 mins in presence of up to 21% DMSO by colorimetric method.
The species named for assay [8] is Homo sapiens. Put plainly: Inhibition of CaCl2 activated hyaluronidase (unknown origin) up to 4000 uM using hyaluronic acid as substrate preincubated for 20 mins followed by substrate addition measured after 10 mins in presence of up to 20% DMSO by colorimetric method.
The nature of assay [9]: Inhibition of CaCl2 activated hyaluronidase (unknown origin) using hyaluronic acid as substrate preincubated for 20 mins followed by substrate addition measured after 10 mins in presence of dithiothreitol by colorimetric method. Also on record: species or system Homo sapiens.
The species entered for assay [10] is Homo sapiens. Put plainly: Non-competitive inhibition of hyaluronidase (unknown origin) up to 1000 um using hyaluronic acid as substrate preincubated for 20 mins followed by substrate addition measured after 10 mins by Lineweaver-Burk plot analysis.

Turning to `CC1(C)CC[C@]2(C(=O)O[C@@H]3O[C@H](CO)[C@@H](O)[C@H](O)[C@H]3O)CC[C@]3(C)C(=CC[C@@H]4[C@@]5(C)CC[C@H](O[C@@H]6O[C@H](C(=O)O)[C@@H](O[C@@H]7O[C@@H](CO)[C@H](O)[C@H]7O)[C@H](O)[C@H]6O)C(C)(C)[C@@H]5CC[C@]43C)[C@@H]2C1`, the IC50 stood at 30 µM in assay [1], 80 µM in [3], 190 µM in [4] and 24 µM in assay [5]. Further, the Ratio IC50 in [2] was determined as 2.5. Moreover, the inhibition entry in assay [6] is “inactive”.

Regarding `O=C(O[C@@H]1Cc2c(O)cc(O)cc2O[C@@H]1c1cc(O)c(O)c(O)c1)c1cc(O)c(O)c(O)c1`, the inhibition entry in assay [7] is “Active”.

Consider `Oc1cc(O)c2c(c1)O[C@H](c1ccc(O)c(O)c1)[C@@H](O)C2`, for which, in [8], the inhibition entry was “Active”.

`Oc1cc(O)c2c(c1)O[C@@H](c1ccc(O)c(O)c1)[C@H](O)C2` [(-)-CATECHIN] had an IC50 in [5] of 1100 µM.

Turning to `Oc1cc(O)c2c(c1)O[C@H](c1ccc(O)c(O)c1)[C@H](O)C2` [(-)-EPICATECHIN], the IC50 was found to be 685 µM in [1]; 789 µM in [3]; 806 µM in [9]; 734 µM in [4]; 804 µM in [5]. Further, the inhibition result in assay [10] and in assay [7] was “Active” each time.

On to `O=C(O)[C@H]1O[C@@H](Oc2cc3oc(-c4ccccc4)cc(=O)c3c(O)c2O)[C@H](O)[C@@H](O)[C@@H]1O` [BAICALIN], for which, in assay [5], 506 µM corresponded to half-maximal inhibition (IC50).

In turn, `CC1(C)CC[C@]2(C(=O)O[C@@H]3O[C@H](CO)[C@@H](O)[C@H](O)[C@H]3O)CC[C@]3(C)C(=CC[C@@H]4[C@@]5(C)CC[C@H](O[C@@H]6O[C@H](C(=O)O)[C@@H](O)[C@H](O)[C@H]6O[C@@H]6O[C@H](CO)[C@@H](O)[C@H](O)[C@H]6O)C(C)(C)[C@@H]5CC[C@]43C)[C@@H]2C1` [GINSENOSIDE R0] gave an IC50 in assay [5] of 34 µM.

Take `CC1(C)[C@@H](O[C@H]2O[C@H](C(=O)O)[C@@H](O)[C@H](O)[C@H]2O[C@@H]2O[C@H](C(=O)O)[C@@H](O)[C@H](O)[C@H]2O)CC[C@]2(C)[C@H]3C(=O)C=C4[C@@H]5C[C@@](C)(C(=O)O)CC[C@]5(C)CC[C@@]4(C)[C@]3(C)CC[C@@H]12` [GLYCYRRHIZIN]: the IC50 in assay [5] turned out to be 8.5 µM.

Source of the values: ChEMBL document CHEMBL4007419, “Discovery of hyaluronidase inhibitors from natural products and their mechanistic characterization under DMSO-perturbed assay conditions” (Bioorg Med Chem Lett, 2017).
